The record followed here is patent publication US9375421B2, “Pharmaceutical intervention for treating an apraxia of speech in children” (Gilrose Pharmaceuticals, LLC, priority 2011, dated 2016).

For assay [1], the system named is children with apraxia of speech. The assay can be described thus: Speech and language assessment of children with apraxia of speech before and after a psychostimulant dose (case examples). The assay is classed as in vivo, human. From the text: Assessment of the verbal ability of a subject can include but is not limited to measures of all the domains described herein: nonspeech oral-motor, speech production, prosody, voice, speech perception, language, and, for older children, linguistic/literacy skills. Of these, (a) inconsistent errors on consonants and vowels in repeated productions of syllables or words, (b) lengthened and disrupted coarticulatory transitions between sounds and syllables, (c) inappropriate prosody, especially in the realization of lexical or phrasal stress; (d) the inability to see a new word and to have the ability to identify and sequence in time and space the sounds not only by themselves but in relationship to one another to be able to produce to transform from a symbol, orthographic to sound representation but to do it according to the rules of language knowing where to divide the written symbols into units; (e) the inability to not only transform into sounds, but sounds in relationship in terms of speed and volume to have that word in the context have that meaning that the author of the written word wanted to convey. The cultural and linguistic background of each subject may optionally be assessed.
When treating a child who is incapable of communication, the child is tested with respect to language skills as well as visual-spatial comprehension skills. For example, a child may be asked to pronounce a few single syllable words, such as “ma, ma” “ba, ba” or to described a picture or read a few words. At the same time, the child's body motions and emotional interactions with other people are observed.
For example, an improvement in a subject may include but is not limited to, an increase in the number of correct phonemes when speaking, a more normal time spent enunciating words, the number of times the last consonant of a word is used correctly, the proper sequencing of words and events, appropriate sound intensity.
Depending where the patient is on the apraxia pyramid, for example vocalization, words, prosody, the number of words in the sentence, the number or types of words in the sentence, the grammar syntax, prosody, measuring the child to his/her previous ability 20-30 minutes ago in addition to medication.

In assay [2] the test system is children with good nonverbal development not functioning well with reading and language skills. The assay can be described thus: Three minute reading test before and after administering the medicine (FIG. 2 and FIG. 3). As to conditions: most of the nine children; 5 mg; pre- versus after administering. The assay is classed as in vivo, human. On the procedure: FIG. 2 is a comparison of the reading abilities of a group of children with a various diagnosed symptoms between pre-treatment and after-treatment with one dosage of 5-7.5 mg of methylphenidate.
FIG. 3 is a comparison of the reading abilities of another group of children with a various diagnosed symptoms between pre-treatment and after-treatment with one dosage of 5-7.5 mg of methylphenidate.
Metrics for quantitative assessment of the language ability include words per minute, three minute reading test, sentence complexity such as length in words, complexity of construction, etc. The number of correctly read syllables minuses the number of mistakes divided by the months of reading training may be used to assess the language ability development.
In reference to FIG. 2 and FIG. 3. […] They were tested for three minute reading before and after administering the medicine. The mistakes in pronouncing syllables were counted. The correct pronunciation ratios (divided by the total number of syllables read) were compared between the pre-administering the drug and after administering the drug. […] Most of them had least 40% improvement.

Bounds are passed on as bounds.

For `COC(=O)C(c1ccccc1)C1CCCCN1` (centres unmarked) [methylphenidate], the “speech ability after dose (Example 1)” value in assay [1] (11 year autistic boy, 10 mg tablets, thirty minutes after dose) was “able to imitate “ma ma ma””. The “speech improvement (Example 9A, third visit)” value in assay [1] (Participant 9A, 5 mg/day, after a month) was “no significant improvement in speech”. The “comprehension (Example 9A, fourth visit)” value in assay [1] (Participant 9A, 10 mg/day, about a month later) is reported as “able to understand the story line of a children's book”. Besides, the “reading ability after dose (Example 5)” value in assay [1] (child with dyslexia, 10 mg, half an hour later) is “able to read a sentence with smooth pronunciations”. Besides, the “speech ability after dose (Example 7)” value in assay [1] (child, chromosome 15 duplication, 2.5 mg, thirty minutes later) is “able to make sounds of “ma mi”, mimic “bye”, “bye” and babble with sounds”. Further, in assay [1] (child, 5 mg, after 30 minutes), the “speech and motor ability after dose (Example 8)” value is “able to repeat two syllable words”. Further, the “speech ability after dose (Example 2)” value in assay [1] (child, one dosage of 5 mg, half an hour later) was “able to follow instructions to mimic the sounds “ma” “ma” “ga” “ga””. For the same compound, the “follow up on speech after repeated dosing (Example 7)” value in assay [1] (same child, 2.5 mg a day for two to three months) is on record as “good progress in speaking sounds”. In assay [2], the “improvement of correct pronunciation ratio, three minute reading” value is on record as no less than 40%.
For `COC(=O)[C@H](c1ccccc1)[C@H]1CCCCN1` [Focalin®, dextro-threo-methylphenidate], the “speech and language (Example 9A, fifth visit)” value in assay [1] (Participant 9A, 10 mg/day after the methylphenidate regimen, about two weeks later) was “able to answer questions about their daily life in clear speech and language”. In addition, the “speech and comprehension (Example 9B)” value in assay [1] (Participant 9B, same regimen as 9A (methylphenidate 5 then 10 mg/day, then Focalin 10 mg/day)) was “an improvement in speech and comprehension”.
